Test systems include SF-295 CNS; K-562 leukemia; M14 melanoma; HCT-15 colon; MCF7 breast; ACHN renal; NCI-H226 lung; SK-OV-3 ovarian; OVCAR-4 ovarian; HL-60(TB) leukemia.
Common to all, as to assay: growth of human tumour cells (NCI), 48 h

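96-well plates; 48 h exposure; 5 concentrations. Endpoints by linear interpolation between flanking doses. Not reached: highest tested concentration assigned. GI50 is the concentration that inhibits growth by half. TGI denotes the concentration required for complete inhibition of growth.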

Results on 10 compounds are retold here after PubChem BioAssay (NCI).

`COc1ccc2nc(-c3ccccc3)cc(Nc3cccc(C(C)=O)c3)c2c1`: the GI50 with SF-295 CNS is 12.7 µM; with K-562 leukemia, 7.73 µM; with M14 melanoma it was 5.11 µM; with HCT-15 colon, 4.93 µM; in the experiment on MCF7 breast, 7.95 µM; in the experiment on ACHN renal it was 5.78 µM. Also, the figures for the GI50 in the experiment with NCI-H226 lung, with SK-OV-3 ovarian and in the experiment on OVCAR-4 ovarian were 16.1 µM, 19.7 µM and 7.05 µM, respectively. The TGI is 31.6 µM in the experiment on SF-295 CNS; greater than 100 µM in the experiment with K-562 leukemia; 20.2 µM in the experiment with M14 melanoma; 22.1 µM in the experiment with HCT-15 colon; 33.2 µM with MCF7 breast; 22.5 µM in the experiment with ACHN renal. Further, the TGI in the experiment with NCI-H226 lung turned out to be 34.3 µM; in the experiment on SK-OV-3 ovarian, 56.5 µM; in the experiment with OVCAR-4 ovarian, 62.8 µM.

For the compound `O=C1c2cccnc2C(=O)c2c1c(C(=O)NCCn1ccnc1)c1ccccn21`, the GI50 is 2.66 µM in the experiment on SF-295 CNS; 4.39 µM in the experiment on K-562 leukemia; 1.91 µM with M14 melanoma; 3.31 µM in the experiment with HCT-15 colon; 1.19 µM with MCF7 breast; 2.75 µM with ACHN renal. Moreover, the GI50 with SK-OV-3 ovarian was 8.88 µM; with OVCAR-4 ovarian, 1.62 µM. Further, the TGI with SF-295 CNS was 14 µM; in the experiment on K-562 leukemia, greater than 100 µM; in the experiment with M14 melanoma, 6.13 µM; in the experiment on HCT-15 colon it was 15.1 µM; in the experiment with MCF7 breast, 3.37 µM; in the experiment with ACHN renal, 36 µM. The results for the TGI in the experiment on SK-OV-3 ovarian and in the experiment with OVCAR-4 ovarian were 21.3 µM and 3.95 µM, respectively.

For `C=C1C(=O)O[C@H]2[C@H]1CC/C(Cn1cc(-c3cccc(Cl)c3)nn1)=C\CC[C@@]1(C)O[C@@H]21`, the GI50 in the experiment on SF-295 CNS was 3.41 µM; in the experiment with K-562 leukemia, 0.405 µM; with M14 melanoma it was 0.798 µM; in the experiment on HCT-15 colon it was 0.192 µM; in the experiment with HL-60(TB) leukemia it was 0.332 µM; with ACHN renal it was 0.184 µM. For the same compound, the GI50 with NCI-H226 lung is 1.71 µM; in the experiment with SK-OV-3 ovarian, 3.67 µM; in the experiment with OVCAR-4 ovarian, 1.09 µM. For the same compound, the TGI with SF-295 CNS worked out at 13 µM; with K-562 leukemia, 2.44 µM; with M14 melanoma, 2.2 µM; in the experiment with HCT-15 colon, 0.479 µM; in the experiment on HL-60(TB) leukemia, 1.31 µM; with ACHN renal it was 0.355 µM. Also, the TGI was determined as 3.75 µM with NCI-H226 lung, 11.2 µM in the experiment on SK-OV-3 ovarian and 2.44 µM in the experiment with OVCAR-4 ovarian.

Turning to `COC(=O)C1C(=O)O[C@@H](c2ccc(OC)c(OC)c2OC)C1C(=O)OC` (mixture of isomers), the TGI in the experiment on SF-295 CNS, with K-562 leukemia, with M14 melanoma, in the experiment on HCT-15 colon, in the experiment on HL-60(TB) leukemia and in the experiment with ACHN renal was greater than 100 µM in each case. Moreover, the TGI with NCI-H226 lung, in the experiment with SK-OV-3 ovarian and in the experiment with OVCAR-4 ovarian was greater than 100 µM in each case.

Regarding `CC(=O)Nc1ccc(/C=C2\N=C(c3ccccc3)OC2=O)cc1`, the TGI in the experiment on SF-295 CNS, in the experiment with K-562 leukemia, in the experiment on M14 melanoma, in the experiment with HCT-15 colon, in the experiment on HL-60(TB) leukemia and in the experiment on ACHN renal was greater than 100 µM in each case. The TGI with NCI-H226 lung, in the experiment on SK-OV-3 ovarian and in the experiment with OVCAR-4 ovarian was greater than 100 µM throughout.

With `CC[C@]1(O)CC2CN(CCc3c([nH]c4ccccc34)[C@@](C(=O)OC)(c3cc4c(cc3OC)N(C=O)[C@H]3[C@@](O)(C(=O)OC)[C@H](OC(C)=O)[C@]5(CC)C=CCN6CC[C@]43[C@@H]65)C2)C1` (some centres not stated), the GI50 was less than 0.005 µM with SF-295 CNS; less than 0.005 µM in the experiment with K-562 leukemia; 0.00632 µM in the experiment with M14 melanoma; less than 0.005 µM in the experiment with MCF7 breast; 0.235 µM with ACHN renal; less than 0.005 µM in the experiment with NCI-H226 lung. Also, the GI50 in the experiment on SK-OV-3 ovarian was less than 0.005 µM; with OVCAR-4 ovarian it was 0.00653 µM. Moreover, the TGI in the experiment with SF-295 CNS was 1.35 µM; in the experiment with K-562 leukemia it was greater than 50 µM; with M14 melanoma it was 0.679 µM; in the experiment with HCT-15 colon it was greater than 50 µM; with MCF7 breast, greater than 50 µM; with ACHN renal, greater than 50 µM. Besides, the TGI with NCI-H226 lung is 0.0319 µM; in the experiment on SK-OV-3 ovarian it was 0.0185 µM; with OVCAR-4 ovarian, greater than 50 µM.

Turning to `COC1[C@H](NC(=O)OC(C)(C)C)C(=O)N1Cc1ccccc1` (some centres not stated), the TGI in the experiment with SF-295 CNS, with K-562 leukemia, with M14 melanoma, with HCT-15 colon, in the experiment with HL-60(TB) leukemia and in the experiment on ACHN renal was greater than 100 µM throughout. The TGI in the experiment with NCI-H226 lung, in the experiment with SK-OV-3 ovarian and with OVCAR-4 ovarian was greater than 100 µM each time.

Take `O=CNc1ccc(S(=O)(=O)c2ccc(NC=O)cc2)cc1`: the TGI in the experiment on SF-295 CNS, with K-562 leukemia, in the experiment on M14 melanoma, in the experiment with HCT-15 colon, with HL-60(TB) leukemia and with MCF7 breast was greater than 100 µM each time. In addition, the TGI in the experiment on ACHN renal, with SK-OV-3 ovarian and in the experiment on OVCAR-4 ovarian was greater than 100 µM throughout.

Consider `COc1cc(/C=C/C(=O)/C=C/c2cc3ccc(Cl)cc3n(Cc3ccccc3)c2=O)ccc1O`, for which the GI50 is 3 µM in the experiment on SF-295 CNS; 1.89 µM in the experiment on K-562 leukemia; 1.83 µM in the experiment with M14 melanoma; 1.24 µM in the experiment with HCT-15 colon; 0.418 µM in the experiment with MCF7 breast; 1.33 µM with ACHN renal. In addition, the GI50 in the experiment on NCI-H226 lung is 2.02 µM; in the experiment on SK-OV-3 ovarian, 5.95 µM; in the experiment on OVCAR-4 ovarian, 2.48 µM. In addition, the TGI in the experiment on SF-295 CNS is 10.8 µM; in the experiment on K-562 leukemia it was greater than 100 µM; with M14 melanoma, 4.67 µM; with HCT-15 colon, 4.01 µM; with MCF7 breast it was 12.3 µM; with ACHN renal, 2.62 µM. Moreover, the TGI turned out to be 4.66 µM in the experiment on NCI-H226 lung, 57.1 µM in the experiment with SK-OV-3 ovarian and 37.8 µM in the experiment with OVCAR-4 ovarian.

As to `O=C1C2c3[nH]c4ccccc4c3C3CCCCCC3C2C(=O)N1c1ccccc1` (configuration not stated), the TGI in the experiment with SF-295 CNS is greater than 65.5 µM; in the experiment with K-562 leukemia, greater than 100 µM; in the experiment with M14 melanoma, greater than 49.3 µM; in the experiment with HCT-15 colon, greater than 100 µM; with HL-60(TB) leukemia it was greater than 70.3 µM; in the experiment on ACHN renal it was greater than 91.1 µM. The figures for the TGI in the experiment on NCI-H226 lung, in the experiment with SK-OV-3 ovarian and with OVCAR-4 ovarian were greater than 64.3 µM, 34.1 µM and greater than 24.5 µM, respectively.
